# Results from patent US20240294572A1, “Antimicrobial Peptides” (priority 2021, published 2024).
# Residues, ends and D or L forms follow the SMILES beside them. *: point of attachment. Decanoyl = CCCCCCCCCC(=O)*
# Legend:
# Assay in all cases: Mass spectrometry of mouse plasma proteins bound to bead-immobilized peptide
# Assay type in all cases: binding
# Conditions in all cases: intensity bound to L-form / D-form of C10-KR8
# [1] = molecular target: T1, Apolipoprotein E (P08226) (Mus musculus, UniProt P08226)
# T1 construct: incubated with 5% mouse plasma; from tissue; host or cells: mouse plasma (5%)
# T1 sequence (P08226 19-311): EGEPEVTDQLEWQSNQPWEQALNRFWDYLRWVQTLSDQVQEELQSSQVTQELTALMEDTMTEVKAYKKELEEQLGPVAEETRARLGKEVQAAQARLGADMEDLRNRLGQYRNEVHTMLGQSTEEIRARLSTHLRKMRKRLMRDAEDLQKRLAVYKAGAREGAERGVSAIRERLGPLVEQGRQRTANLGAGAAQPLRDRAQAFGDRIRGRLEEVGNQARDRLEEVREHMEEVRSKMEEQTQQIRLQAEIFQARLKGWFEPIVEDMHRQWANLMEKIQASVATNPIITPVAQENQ
# Method: (§1) Dynabeads M-370 amine (2×10^9 beads/mL, 50 μL; Thermo Fisher Scientific) were washed 3 times in sterile PBS (1 mL; GIBCO) and reacted with a bifunctional SM(PEG)4 cross-linker (5 mg/mL in DMSO) containing N-hydroxysuccinimide (NHS) ester and maleimide functional groups. A stable covalent bond between the amino group of beads and the NHS ester of the cross-linker was formed in PBS at pH 7.2 at room temperature for 24 hours with shaking at 80 rpm. The beads were then washed six times with PBS to remove nonreacted cross-linker. Next, peptide C10-KR8 (with a cysteine at the N-terminus) at 5 mg/mL was reacted with the free maleimide group in PBS for 24 hours at room temperature with shaking at 80 rpm. Another round of washing was conducted to remove the nonreacted peptides. Both the L-and D-forms of the peptide were coupled in the same manner. A portion of the beads without peptide coupling was saved as a control.
# (§2) For serum binding experiments, the beads were resuspended in 500 μL of PBS; 200-μL aliquots of the coated and control dynabead were incubated with 5% mouse plasma for 18 hours at 37° C. After binding, the beads were washed six times with PBS to remove unbound proteins. Finally, the beads were suspended in 50 μL of PBS for mass spectrophotometric analysis to identify peptide-binding partners.
# (§3) The samples were reduced by 10 mM dithiothreitol (DTT) and incubated for 30 minutes at 56° C. and back to room temperature. A final concentration of 50 mM iodoacetamide was added to alkylate free cysteines followed by further incubation for 20 min in the dark. Bound proteins were enzymatically digested by trypsin (4 μL of 0.5 μg/mL) overnight. A 60 […] portion was transferred to a new Eppendorf® tube and dried for 2 hours. The samples were then dissolved in 20 μL of 2% acetonitrile with 0.1% formic acid before being loaded to Q-tip columns (Pepclean, C18 spin column). Column was activated by pipetting in and out (4× times), 10 μL of 70% acetonitrile with 0.1% formic acid, and equilibrating with the same volume of 2% acetonitrile with 0.1% formic acid. Binding of the samples was done by mixing more than 10 × times, followed by washing in the same buffer (2% acetonitrile with 0.1% formic acid). The bound peptides were then eluted with 20 μL of 70% acetonitrile with 0.1% formic acid. Samples were subjected to LC-MS analysis after being suspended in the desired buffer.
# (§4) Extracted peptides were resuspended in 2% acetonitrile (ACN) and 0.1% formic acid (FA) and loaded onto trap column Acclaim™ PepMap™ 100 75 μm×2 cm C18 LC Columns (Thermo Scientific) at a flow rate of 4 μL/minute. These were then separated with a Thermo RSLC UltiMate™ 3000 on a Thermo Easy-Spray PepMap™ M RSLC C18 75 μm×50 cm C-18 2 μm column (Thermo Scientific) with a step gradient of 4-25% solvent B (0.1% FA in 80% ACN) from 10 to 37 minutes and 25-45% solvent B for 37-46 minutes at 300 nL/min and 50° C. with a 70 minute total run time. Eluted peptides were analyzed by a Thermo Orbitrap Fusion™ Lumos™ Tribrid™ (Thermo Scientific) mass spectrometer in a data dependent acquisition mode. A survey full scan MS (from m/z 350-1800) was acquired in the orbitrap with a resolution of 120000. The AGC target for MS1 was set as 4×10^5 and the ion filling time set as 100 ms. The most intense ions with charge state 2-6 were isolated in 3 second cycle and fragmented using HCD fragmentation with 40% normalized collision energy and detected at a mass resolution of 30000 at 200 m/z. The AGC target for MS/MS was set as 5×10^4 and ion filling time set 60 ms dynamic exclusion was set for 30 seconds with a 10 ppm mass window. Protein identification was performed by searching MS/MS data against the Swiss-Prot mouse protein database. The search was set up for full tryptic peptides with a maximum of two missed cleavage sites. Acetylation of protein N-terminus and oxidized methionine were included as variable modifications, and carbamidomethylation of cysteine was set as fixed modification. […]
# [2] = molecular target: T2, Apolipoprotein A-I (Q00623) (Mus musculus, UniProt Q00623)
# T2 construct: incubated with 5% mouse plasma; from tissue; host or cells: mouse plasma (5%)
# T2 sequence (Q00623 19-264): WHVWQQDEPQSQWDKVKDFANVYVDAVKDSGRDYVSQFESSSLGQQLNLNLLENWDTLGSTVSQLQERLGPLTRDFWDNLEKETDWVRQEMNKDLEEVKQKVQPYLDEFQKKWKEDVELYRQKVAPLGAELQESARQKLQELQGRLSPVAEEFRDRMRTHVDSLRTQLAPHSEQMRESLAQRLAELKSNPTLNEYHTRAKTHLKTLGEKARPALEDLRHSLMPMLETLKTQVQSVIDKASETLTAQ
# Method: as §1, §2, §3, §4
# [3] = molecular target: T3, Apolipoprotein C-III (P33622) (Mus musculus, UniProt P33622)
# T3 construct: incubated with 5% mouse plasma; from tissue; host or cells: mouse plasma (5%)
# T3 sequence (P33622 21-99): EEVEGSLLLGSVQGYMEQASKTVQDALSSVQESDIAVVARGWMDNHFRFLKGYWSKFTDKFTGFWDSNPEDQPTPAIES
# Method: as §1, §2, §3, §4
# [4] = molecular target: T4, Apolipoprotein C-I (P34928) (Mus musculus, UniProt P34928)
# T4 construct: incubated with 5% mouse plasma; from tissue; host or cells: mouse plasma (5%)
# T4 sequence (P34928 27-88): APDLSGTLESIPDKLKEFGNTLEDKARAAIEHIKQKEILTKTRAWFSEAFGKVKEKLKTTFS
# Method: as §1, §2, §3, §4
# [5] = molecular target: T5, Apolipoprotein A-IV (P06728) (Mus musculus, UniProt P06728)
# T5 construct: incubated with 5% mouse plasma; from tissue; host or cells: mouse plasma (5%)
# T5 sequence (P06728 21-395): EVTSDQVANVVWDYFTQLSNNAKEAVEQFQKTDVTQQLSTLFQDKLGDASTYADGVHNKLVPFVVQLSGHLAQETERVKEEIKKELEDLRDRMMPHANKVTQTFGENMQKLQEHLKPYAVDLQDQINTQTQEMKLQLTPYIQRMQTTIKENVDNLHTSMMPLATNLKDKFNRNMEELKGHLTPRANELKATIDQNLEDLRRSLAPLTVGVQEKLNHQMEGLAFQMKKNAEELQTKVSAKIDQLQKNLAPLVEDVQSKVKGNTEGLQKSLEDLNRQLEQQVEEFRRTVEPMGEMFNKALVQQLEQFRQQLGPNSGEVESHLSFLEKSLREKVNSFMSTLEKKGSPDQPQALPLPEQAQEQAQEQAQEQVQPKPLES
# Method: as §1, §2, §3, §4
compound,measurement,setting,value
CCCCCCCCCC(=O)N[C@@H](CCCCN)C(=O)N[C@@H](CCCNC(=N)N)C(=O)N[C@H](C(=O)N[C@@H](Cc1c[nH]c2ccccc12)C(=O)N[C@@H](CCC(N)=O)C(=O)N[C@@H](CCCNC(=N)N)C(=O)N[C@H](C(=O)N[C@@H](CCCCN)C(N)=O)[C@@H](C)CC)[C@@H](C)CC [Peptide C10-KR8] (Decanoyl-KRIWQRIK-NH2),"L/D Ratio, Apolipoprotein E",[1],0.811
same,"L/D Ratio, Apolipoprotein A-I",[2],3.54
same,"L/D Ratio, Apolipoprotein C-III",[3],3.62
same,"L/D Ratio, Apolipoprotein C-I",[4],2.08
same,"L/D Ratio, Apolipoprotein A-IV",[5],2.89
